Measured values from PMC3997506, “Novel PPAR Pan Agonist, ZBH Ameliorates Hyperlipidemia and Insulin Resistance in High Fat Diet Induced Hyperlipidemic Hamster” (PLoS ONE, 2014).

How the values were obtained:
[1] = target: T1, hPPARγ (Homo sapiens, UniProt P37231); test: In vitro transactivation assay, GAL4-hPPAR luciferase reporter in HEK-293 cells; assay type: cell-based; details: HEK-293, 24 h treatment
T1 sequence (P37231 238-505 limits assumed): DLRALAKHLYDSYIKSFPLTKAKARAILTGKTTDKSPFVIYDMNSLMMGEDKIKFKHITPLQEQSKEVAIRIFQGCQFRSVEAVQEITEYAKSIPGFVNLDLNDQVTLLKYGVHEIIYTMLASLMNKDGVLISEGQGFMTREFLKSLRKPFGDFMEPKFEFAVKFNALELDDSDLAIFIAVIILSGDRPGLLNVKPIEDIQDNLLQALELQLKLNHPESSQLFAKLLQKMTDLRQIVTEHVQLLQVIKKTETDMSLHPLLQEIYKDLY
Experimental: (§1) Transactivation of PPARs was analyzed in a cell-based luciferase reporter assay using HEK-293 cells transiently transfected to express hPPAR-GAL4 chimeric receptors with plasmids GAL4-hPPAR α, γ, or δ, and pUAS (5x)-tk-luc receptor vector as previously described. 24 h after transfection, cells were treated with the indicated compounds, followed by the measurement of luciferase activity 24 h later. Mean values represent those obtained from at least three independent experiments performed in triplicate and normalized by the Renilla luciferase reading.
(§2) HEK-293 cells transiently transfected to express hPPAR-GAL4 chimeric receptors with plasmids GAL4-hPPAR α, γ, or δ, and pUAS (5x)-tk-luc receptor vector. 24 h after transfection, cells were treated with the indicated compounds at various concentrations followed by the measurement of luciferase activity 24 h after treatment. The results shown are the mean values obtained from at least three independent experiments performed in triplicate normalized by the Renilla luciferase reading.

[2] = target: T2, hPPARδ (Homo sapiens, UniProt Q03181); test: as above; assay type: cell-based; details: HEK-293, 24 h treatment
T2 sequence (Q03181 171-441 limits assumed): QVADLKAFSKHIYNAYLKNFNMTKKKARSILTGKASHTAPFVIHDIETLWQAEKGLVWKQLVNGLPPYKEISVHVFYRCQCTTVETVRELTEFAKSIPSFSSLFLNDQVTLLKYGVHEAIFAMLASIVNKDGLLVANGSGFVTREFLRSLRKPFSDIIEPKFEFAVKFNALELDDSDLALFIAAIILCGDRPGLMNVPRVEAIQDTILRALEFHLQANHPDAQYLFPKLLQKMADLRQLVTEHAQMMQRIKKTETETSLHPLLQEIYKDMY
Experimental: as §1, §2

[3] = target: T3, hPPARα (Homo sapiens, UniProt Q07869); test: as above; assay type: cell-based
T3 sequence (Q07869 200-468 limits assumed): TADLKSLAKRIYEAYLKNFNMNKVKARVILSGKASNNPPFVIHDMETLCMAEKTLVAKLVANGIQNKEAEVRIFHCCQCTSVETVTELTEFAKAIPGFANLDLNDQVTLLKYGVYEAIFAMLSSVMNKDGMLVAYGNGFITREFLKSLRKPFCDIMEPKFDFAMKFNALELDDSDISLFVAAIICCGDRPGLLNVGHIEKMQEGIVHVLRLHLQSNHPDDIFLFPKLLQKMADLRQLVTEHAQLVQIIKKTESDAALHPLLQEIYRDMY
Experimental: as §1, §2

[4] = tested on: SIRT1 mRNA; test: Quantitative real-time PCR of tissues of hyperlipidemic hamsters; assay type: in vivo, golden Syrian hamsters (Mesocricetus auratus); details: short-term (3 days) and chronic (5 weeks) treatment
Experimental: To determine the relative mRNA expression levels of lipid metabolism-related genes, total RNA was isolated from the liver, white adipose tissue (WAT) or muscle and real-time PCR was performed with the ABI PRISM 7300 sequence detection system (Applied Biosystems, Warrington, UK) as previously described. The relative amount of all mRNAs was calculated using the comparative CT method. Target gene expression is presented relative to β-actin expression.
Figure 9 Effects of ZBH on gene expression in hyperlipidemic hamsters. Relative gene expression of the indicated genes in the liver (A and B), WAT (C and D) and skeletal muscle (E and F) of hyperlipidemic hamsters following 3 days (A, C and E) and/or 5 weeks (B, D and F) of ZBH or BEZ administration was determined by QPCR. Results are normalized to β-actin and expressed as mean fold increase of mRNA ±SD compared to the normal hamsters (NC). n = 3. *P<0.05, **P<0.01, ***P<0.001 vs. MC group.

[5] = tested on: 3T3-L1 adipocytes; test: Adiponectin expression in 3T3-L1 adipocytes; assay type: cell-based; details: 10–100 µM, dose dependent, data not shown

COc1ccc(/C=C/c2cc(OC)cc(OCCCC(C)(C)C(=O)O)c2)cc1 [ZBH, (E)-5-(3-methoxy-5-(4-methoxystyryl)phenoxy) -2,2-dimethylpentanoic acid]
EC50 [1]: 25.4 µM
EC50 [2]: 19.2 µM
PPARα transactivation selectivity over other PPAR subtypes (EC50 fold) ([3]; Discussion): 11 fold
maximal activation of PPARα ([3]; HEK-293): approximately 11 fold
EC50 ([3]; HEK-293, 24 h treatment): 1750 nM
PPARα activation potency (EC50) relative to bezafibrate ([3]; ZBH vs bezafibrate): 21 fold
PPARα activation exceeds PPARγ activation ([3]; selectivity α over γ): 14 fold
PPARα activation exceeds PPARδ activation ([3]; selectivity α over δ): 11 fold
SIRT1 mRNA expression in liver, adipose tissue and skeletal muscle [4]: upregulated
adiponectin expression [5]: dramatically up-regulate
